System: winter wheat (Vershin variety)
Experiment: Winter wheat seed treatment with BHMPA salts: germinating power (length and mass of roots and sprouts)
Assay type: in vivo
Method in brief: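 Seeds (50 per Petri dish on two layers of filter paper) soaked 1 h in BHMPA or its Ca, Mg, Na, Co, Mn, Cu or Zn salts at 1·10^−6-1·10^−12%, with water controls. Germination energy read on day 4, germination on day 8 (wheat) or day 7 (rice, corn), as % means of four replicates. Germinating power taken as root and sprout length plus wet and dry mass per 100 seedlings.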

[1] = comparative study, 1·10^−9% solution

`O=P([O-])(CO)CO.[Na+]` [Na-salt, Sodium BHMPA Salt] was tested, and the “effectiveness on germinating power” value (1·10^−6% and 1·10^−12% solutions) was “marginally effective”, the Length, root (1·10^−6% solution) was 5.0 cm and the “Length, root, + % to control” value (1·10^−6% solution) was −5.7%. The Length, sprout (1·10^−6% solution) was 6.0 cm, the “Length, sprout, + % to control” value (1·10^−6% solution) was −1.6% and the Mass, dry, root (1·10^−6% solution) was 0.37 g/100 plantlings. For the same molecule, the “Mass, dry, root, + % to control” value (1·10^−6% solution) was −10%, the Mass, dry, sprout (1·10^−6% solution) was 0.54 g/100 plantlings and the “Mass, dry, sprout, + % to control” value (1·10^−6% solution) was −3.6%. The Mass, wet, root (1·10^−6% solution) was 2.35 g/100 plantlings, the “Mass, wet, root, + % to control” value (1·10^−6% solution) was −3.7% and the Mass, wet, sprout (1·10^−6% solution) was 4.51 g/100 plantlings. For the same molecule, the “Mass, wet, sprout, + % to control” value (1·10^−6% solution) was −3.6%, the Length, root (1·10^−7% solution) was 5.3 cm and the “Length, root, + % to control” value (1·10^−7% solution) was 0%. For the same molecule, the Length, sprout (1·10^−7% solution) was 6.3 cm, the “Length, sprout, + % to control” value (1·10^−7% solution) was 3.3% and the Mass, dry, root (1·10^−7% solution) was 0.45 g/100 plantlings. For the same molecule, the “Mass, dry, root, + % to control” value (1·10^−7% solution) was 10%, the Mass, dry, sprout (1·10^−7% solution) was 0.56 g/100 plantlings and the “Mass, dry, sprout, + % to control” value (1·10^−7% solution) was 0%. For the same molecule, the Mass, wet, root (1·10^−7% solution) was 2.58 g/100 plantlings, the “Mass, wet, root, + % to control” value (1·10^−7% solution) was 5.7% and the Mass, wet, sprout (1·10^−7% solution) was 5.03 g/100 plantlings. The “Mass, wet, sprout, + % to control” value (1·10^−7% solution) was 7.5%, the Length, root (1·10^−8% solution) was 5.6 cm and the “Length, root, + % to control” value (1·10^−8% solution) was 5.7%. The Length, sprout (1·10^−8% solution) was 6.7 cm, the “Length, sprout, + % to control” value (1·10^−8% solution) was 10% and the Mass, dry, root (1·10^−8% solution) was 0.47 g/100 plantlings. The “Mass, dry, root, + % to control” value (1·10^−8% solution) was 14.6%, the Mass, dry, sprout (1·10^−8% solution) was 0.63 g/100 plantlings and the “Mass, dry, sprout, + % to control” value (1·10^−8% solution) was 12.5%. For the same molecule, the Mass, wet, root (1·10^−8% solution) was 2.73 g/100 plantlings, the “Mass, wet, root, + % to control” value (1·10^−8% solution) was 12% and the Mass, wet, sprout (1·10^−8% solution) was 5.37 g/100 plantlings. For the same molecule, the “Mass, wet, sprout, + % to control” value (1·10^−8% solution) was 15%, the Length, root (1·10^−9% solution) was 5.7 cm and the “Length, root, + % to control” value (1·10^−9% solution) was 7.5%. For the same molecule, the Length, sprout (1·10^−9% solution) was 6.9 cm, the “Length, sprout, + % to control” value (1·10^−9% solution) was 13% and the Mass, dry, root (1·10^−9% solution) was 0.56 g/100 plantlings. The “Mass, dry, root, + % to control” value (1·10^−9% solution) was 36.5%, the Mass, dry, sprout (1·10^−9% solution) was 0.69 g/100 plantlings and the “Mass, dry, sprout, + % to control” value (1·10^−9% solution) was 23%. For the same molecule, the Mass, wet, root (1·10^−9% solution) was 3.21 g/100 plantlings, the “Mass, wet, root, + % to control” value (1·10^−9% solution) was 31.5% and the Mass, wet, sprout (1·10^−9% solution) was 5.41 g/100 plantlings. For the same molecule, the “Mass, wet, sprout, + % to control” value (1·10^−9% solution) was 15.6%, the Length, root (1·10^−10% solution) was 5.6 cm and the “Length, root, + % to control” value (1·10^−10% solution) was 5.7%. The Length, sprout (1·10^−10% solution) was 6.5 cm, the “Length, sprout, + % to control” value (1·10^−10% solution) was 6.5% and the Mass, dry, root (1·10^−10% solution) was 0.46 g/100 plantlings. The “Mass, dry, root, + % to control” value (1·10^−10% solution) was 12%, the Mass, dry, sprout (1·10^−10% solution) was 0.61 g/100 plantlings and the “Mass, dry, sprout, + % to control” value (1·10^−10% solution) was 9%. The Mass, wet, root (1·10^−10% solution) was 2.66 g/100 plantlings, the “Mass, wet, root, + % to control” value (1·10^−10% solution) was 9% and the Mass, wet, sprout (1·10^−10% solution) was 5.33 g/100 plantlings. For the same molecule, the “Mass, wet, sprout, + % to control” value (1·10^−10% solution) was 14%, the Length, root (1·10^−11% solution) was 5.5 cm and the “Length, root, + % to control” value (1·10^−11% solution) was 3.8%. For the same molecule, the Length, sprout (1·10^−11% solution) was 6.4 cm, the “Length, sprout, + % to control” value (1·10^−11% solution) was 5% and the Mass, dry, root (1·10^−11% solution) was 0.43 g/100 plantlings. For the same molecule, the “Mass, dry, root, + % to control” value (1·10^−11% solution) was 5%, the Mass, dry, sprout (1·10^−11% solution) was 0.60 g/100 plantlings and the “Mass, dry, sprout, + % to control” value (1·10^−11% solution) was 7%. For the same molecule, the Mass, wet, root (1·10^−11% solution) was 2.57 g/100 plantlings, the “Mass, wet, root, + % to control” value (1·10^−11% solution) was 5.3% and the Mass, wet, sprout (1·10^−11% solution) was 5.11 g/100 plantlings. For the same molecule, the “Mass, wet, sprout, + % to control” value (1·10^−11% solution) was 9%, the Length, root (1·10^−12% solution) was 5.4 cm and the “Length, root, + % to control” value (1·10^−12% solution) was 2%. The Length, sprout (1·10^−12% solution) was 6.3 cm, the “Length, sprout, + % to control” value (1·10^−12% solution) was 3.3% and the Mass, dry, root (1·10^−12% solution) was 0.42 g/100 plantlings. The “Mass, dry, root, + % to control” value (1·10^−12% solution) was 2%, the Mass, dry, sprout (1·10^−12% solution) was 0.58 g/100 plantlings and the “Mass, dry, sprout, + % to control” value (1·10^−12% solution) was 3.6%. For the same molecule, the Mass, wet, root (1·10^−12% solution) was 2.41 g/100 plantlings, the “Mass, wet, root, + % to control” value (1·10^−12% solution) was −1.2% and the Mass, wet, sprout (1·10^−12% solution) was 5.03 g/100 plantlings. For the same molecule, the “Mass, wet, sprout, + % to control” value (1·10^−12% solution) was 7.5%, the Length, root [1] was 8.7 cm and the “Length, root, + % to control” value [1] was 0%. The Length, sprout [1] was 6.4 cm, the “Length, sprout, + % to control” value [1] was 3% and the Mass, dry, root [1] was 0.64 g/100 plantlings. For the same molecule, the “Mass, dry, root, + % to control” value [1] was 3%, the Mass, dry, sprout [1] was 0.53 g/100 plantlings and the “Mass, dry, sprout, + % to control” value [1] was 4%. For the same molecule, the Mass, wet, root [1] was 4.19 g/100 plantlings, the “Mass, wet, root, + % to control” value [1] was 16% and the Mass, wet, sprout [1] was 4.73 g/100 plantlings. For the same molecule, the “Mass, wet, sprout, + % to control” value [1] was 19%.

Source: patent publication US10781224B2, “Bis(oxymethyl)phosphinic acid and biogenic metal salts thereof as regulators of plant growth and development” (priority 2016, dated 2020)
